Assay results reported in ChEMBL document CHEMBL1201862, “PubChem BioAssay data set” (2004).
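Following 48 hours of exposure in 96-well plates, responses at five concentrations were used to interpolate endpoints linearly. GI50 = concentration required for 50% inhibition of growth.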 The source made the active and inactive calls. Cut-off read from the data, not from the text of the source: active = GI50 up to about 1.1 µM and inactive = higher.

Key:
Assay in all cases: NCI-60 cell line screen, 48 h
NCI-H460 = tested on: NCI-H460
CCRF-CEM = tested on: CCRF-CEM
RXF 393 = tested on: RXF 393
DU-145 = tested on: DU-145
NCI-H522 = tested on: NCI-H522
KM12 = tested on: KM12
CAKI-1 = tested on: CAKI-1
K562 = tested on: K562
786-0 = tested on: 786-0
A498 = tested on: A498
MCF7 = tested on: MCF7
MDA-MB-435 = tested on: MDA-MB-435
SK-OV-3 = tested on: SK-OV-3
Malme-3M = tested on: Malme-3M
MDA-MB-231 = tested on: MDA-MB-231
EKVX = tested on: EKVX
UACC-257 = tested on: UACC-257
LOX IMVI = tested on: LOX IMVI
SN12C = tested on: SN12C
SK-MEL-2 = tested on: SK-MEL-2
SF-539 = tested on: SF-539
HCC 2998 = tested on: HCC 2998
OVCAR-8 = tested on: OVCAR-8
MDA-N = tested on: MDA-N
HCT-116 = tested on: HCT-116
SK-MEL-5 = tested on: SK-MEL-5
HL-60 = tested on: HL-60
UACC-62 = tested on: UACC-62
T47D = tested on: T47D
SNB-19 = tested on: SNB-19
U-251 = tested on: U-251
Hs-578T = tested on: Hs-578T
IGROV-1 = tested on: IGROV-1
PC-3 = tested on: PC-3
HCT-15 = tested on: HCT-15
SK-MEL-28 = tested on: SK-MEL-28
A549 = tested on: A549
SNB-75 = tested on: SNB-75
MOLT-4 = tested on: MOLT-4
M14 = tested on: M14
NCI-H226 = tested on: NCI-H226
BT-549 = tested on: BT-549
OVCAR-5 = tested on: OVCAR-5
COLO 205 = tested on: COLO 205
SR = tested on: SR
OVCAR-3 = tested on: OVCAR-3
RPMI-8226 = tested on: RPMI-8226
NCI/ADR-RES = tested on: NCI/ADR-RES
SF-268 = tested on: SF-268
OVCAR-4 = tested on: OVCAR-4
NCI-H23 = tested on: NCI-H23
TK-10 = tested on: TK-10
UO-31 = tested on: UO-31
HT-29 = tested on: HT-29
SW-620 = tested on: SW-620

Measured: GI50

O=[N+]([O-])C1(C2([N+](=O)[O-])CCCC2)CCCC1
> 100 µM: HCT-15
inactive: NCI-H460 > 100 µM | CCRF-CEM > 100 µM | RXF 393 > 100 µM | DU-145 > 100 µM | NCI-H522 50.7 µM | KM12 > 100 µM | CAKI-1 > 100 µM | K562 > 100 µM | 786-0 > 100 µM | A498 > 100 µM | MCF7 > 100 µM | MDA-MB-435 > 100 µM | SK-OV-3 > 100 µM | Malme-3M > 100 µM | MDA-MB-231 > 100 µM | EKVX > 100 µM | UACC-257 > 100 µM | LOX IMVI > 100 µM | SN12C > 100 µM | SK-MEL-2 > 100 µM | SF-539 > 100 µM | HCC 2998 > 100 µM | OVCAR-8 > 100 µM | MDA-N > 100 µM | HCT-116 > 100 µM | SK-MEL-5 > 100 µM | HL-60 > 100 µM | UACC-62 > 100 µM | T47D > 100 µM | SNB-19 > 100 µM | U-251 > 100 µM | Hs-578T > 100 µM | IGROV-1 > 100 µM | PC-3 > 100 µM | SK-MEL-28 > 100 µM | A549 > 100 µM | SNB-75 61 µM | MOLT-4 > 100 µM | M14 > 100 µM | NCI-H226 > 100 µM | BT-549 > 100 µM | OVCAR-5 > 100 µM | COLO 205 > 100 µM | SR > 100 µM | OVCAR-3 > 100 µM | RPMI-8226 > 100 µM | NCI/ADR-RES > 100 µM | SF-268 > 100 µM | OVCAR-4 > 100 µM | NCI-H23 > 100 µM | TK-10 > 100 µM | UO-31 57.1 µM | HT-29 > 100 µM | SW-620 > 100 µM
